# Results reported in patent publication US6200762A, “Photon reducing agents and compositions for fluorescence assays” (Aurora Biosciences Corporation, priority 1998, dated 2001).
# Structures can show the parent of a compound that is named as a salt.
# Legend:
# [1] = pH 7.15
# [2] = Absorption maxima of dyes; format: physicochemical; settings: for Absorption maximum: main value
# [3] = Reduction of coumarin fluorescence as a function of path length; settings: 10 μM coumarin + 1 mM phenol red, capillary
# Protocol: To further investigate the ability of photon reducing agents to reduce fluorescence emitted from a solution, fluorescence emitted from a solution containing a fluorophore in the presence of a photon reducing agent was monitored as a function sample thickness.
# A photon reducing agent, phenol red, was tested with a fluorophore, coumarin, as a function of sample thickness (path length). The experiment was conducted using a microscope equipped with epifluorescence. The liquid samples were drawn into low fluorescence capillary tubes of fixed path length (Vitro Dynamics, Rockaway N.J.) as indicated in the graphs. The following samples were evaluated:
# 1) 10 μM coumarin (diamonds)
# 2) 10 μM coumarin+1 mM phenol red (squares)
# 3) 10 μM coumarin+5% (vol/vol) Schilling Red (triangles).
# The samples were excited using a 405/20 filter via a 425 dichroic reflector through a 20× objective (Zeiss 20×Fluar). Emitted light was filtered through a 460/50 filter and detected by an intensified CCD camera (Stanford Photonics, Menlo Park, Calif.). The detector output was converted to a 512×512 pixel eight-bit digital image. The data reflect the average intensity within a 20×20 pixel area within the capillary. The background intensity of the field was subtracted from all values.
# [4] = Reduction of front face fluorescence of a coumarin solution by 1 mM phenol red; settings: 0.5 μM coumarin, phosphate buffer pH 7.5 / 50% methanol
# Protocol: To investigate the ability of a photon reducing agent to reduce fluorescence of a solution, emission of a fluorophore from a sample was monitored in the presence and absence of a photon reducing agent.
# Fluorescence from a solution of a blue fluorescent dye, 6-chloro-7-hydroxy coumarin 3-carboxylate, was determined in the presence and absence of a 1 mM phenol red as the photon reducing agent. A solution of 0.5 μM 6-chloro-7-hydroxy coumarin-3-carboxylate in solvent containing 50% (vol/vol) aqueous 39 mM phosphate buffer pH 7.5 and 50% (vol/vol) methanol was prepared. After taking a front face fluorescence spectrum of this solution on a Spex Fluorolog 2, 1% (vol/vol) of a 100 mM aqueous Phenol Red stock solution was added and another spectrum taken. Front face fluorescence refers to exciting the sample at a right angle to the sample surface and collecting emitted light (for example, from the excited region or emission region) at 12.5 degrees from such angle of excitation.
# [5] = Effect of 50% methanol on coumarin fluorescence and phenol red absorbance (dye stacking); format: physicochemical
# Protocol: To further investigate the ability of a photon reducing agent to reduce fluorescence of a solution, fluorescence of a dye in the presence of a photon reducing agent was monitored in the presence and absence of methanol.
# […] A 10 μM solution of 6-chloro-7-hydroxy coumarin-3-carboxylate was prepared in 39 mM phosphate buffer pH 7.5 and in a 1:1 mixture of same phosphate buffer and methanol. 1% (vol/vol) of a 100 mM aqueous Phenol Red stock solution was added to the solutions.
# The presence of methanol increased fluorescence compared to an all aqueous buffer.
# [6] = Reduction of solution fluorescence using non-dye quenchers and particulates; settings: 10 μM coumarin, pH 7.5
smiles,measurement,setting,value
"[Cl][Ni][Cl] [nickel (II) salts, nickel (II) chloride]",concentration at which coumarin fluorescence can be reduced,[1],low millimolar range
Cc1cc(-c2ccc(/N=N/c3c(S(=O)(=O)O)cc4cc(S(=O)(=O)O)cc(N)c4c3O)c(C)c2)ccc1/N=N/c1c(S(=O)(=O)O)cc2cc(S(=O)(=O)O)cc(N)c2c1O [Trypan Blue],Absorption maximum,[2],607 nm
O=C(O)c1nn(-c2ccc(S(=O)(=O)O)cc2)c(O)c1N=Nc1ccc(S(=O)(=O)O)cc1 [Tartrazine],Absorption maximum,[2],425 nm
O=S1(=O)OC(c2ccc(O)cc2)(c2ccc(O)cc2)c2ccccc21 [Phenol Red],attenuation of coumarin fluorescence,[3],significantly attenuated
same,Absorption maximum,[2],557 nm
same,"Absorption maximum (second value, in parentheses)",[2]; value in parentheses,423 nm
same,reduction of front face fluorescence,[4],70 fold
same,decrease of absorbance by 50% methanol buffer,[5]; at the emission wavelength of the coumarin,about 20%
O=C(O)c1cc2cc(Cl)c(O)cc2oc1=O [6-chloro-7-hydroxy coumarin-3-carboxylate],increase of fluorescence by 50% methanol buffer,[5]; in the absence of a photon reducing agent,about 30%
CC(=O)Nc1ccc(N=Nc2c(N)ccc3cc(S(=O)(=O)[O-])cc(O)c23)c(S(=O)(=O)[O-])c1.[Na+].[Na+] [Acid Red 37],Absorption maximum,[2],513 nm
NCCN(CCN)CCN [tris(2-aminoethyl)amine],concentration typically required (collisional quenchers),[6],higher than 100 mM
